# Test results: US20250282768A1 (Janssen Pharmaceutica NV, priority 2022, published 2025)
# System: p-IKKa levels in L363 (NIK translocated multiple myeloma) cells
# Assay: Assay 2: Effect of compounds on p-IKKa levels in L363 (NIK translocated multiple myeloma) cells
# Type: cell-based
# Conditions: Homo sapiens, L-363, 6 h, read-out: Assay 2 IC50 (nM), p-IKKa (Ser 176/180) in BAFF stimulated L363 cells with MG132, 6 h; average if tested more than once
# Procedure, shortened: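 L363 cells incubated overnight ± 250 ng/ml BAFF, then 6 h at 37 °C with compound (0.3% DMSO) ± 10 μM MG132. Lysates assayed for p-IKKa (Ser176/180) by AlphaLISA SureFire. IC50 from sigmoidal fit of % inhibition normalized to BAFF/MG132-stimulated and unstimulated controls.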
row,SMILES,IC50 [nM]
1,"CN1CC[C@@](O)(c2cc(-c3cccc(-c4ccnc(Nc5cnn(CCN)c5)n4)n3)no2)C1=O [Example 125, (R)-3-(3-(6-(2-((1-(2-Aminoethyl)-1H-pyrazol-4-yl)amino)pyrimidin-4-yl)pyridin-2-yl)isoxazol-5-yl)-3-hydroxy-1-methylpyrrolidin-2-one]",50 to 500
2,"CN(C)CCn1ccc(Nc2nccc(-c3cccc(-c4cc([C@]5(O)CCN(C)C5=O)on4)n3)n2)n1 [Example 126, (R)-3-(3-(6-(2-((1-(2-(Dimethylamino)ethyl)-1H-pyrazol-3-yl)amino)pyrimidin-4-yl)pyridin-2-yl)isoxazol-5-yl)-3-hydroxy-1-methylpyrrolidin-2-one]",< 50
3,"CN1CC[C@@](O)(c2cc(-c3cccc(-c4ccnc(Nc5ccnn6ccnc56)n4)n3)no2)C1=O [Example 127, (R)-3-Hydroxy-3-(3-(6-(2-(imidazo[1,2-b]pyridazin-8-ylamino)pyrimidin-4-yl)pyridin-2-yl)isoxazol-5-yl)-1-methylpyrrolidin-2-one]",50 to 500
4,"Cc1nccc(Nc2nccc(-c3cccc(-c4cc([C@]5(O)CCN(C)C5=O)on4)n3)n2)c1C [Example 128, (R)-3-(3-(6-(2-((2,3-Dimethylpyridin-4-yl)amino)pyrimidin-4-yl)pyridin-2-yl)isoxazol-5-yl)-3-hydroxy-1-methylpyrrolidin-2-one]",< 50
5,"Cc1cc(Nc2nccc(-c3cccc(-c4cc([C@]5(O)CCN(C)C5=O)on4)n3)n2)n(CCO)n1 [Example 129, (R)-3-Hydroxy-3-(3-(6-(2-((1-(2-hydroxyethyl)-3-methyl-1H-pyrazol-5-yl)amino)pyrimidin-4-yl)pyridin-2-yl)isoxazol-5-yl)-1-methylpyrrolidin-2-one]",50 to 500
6,"CN(C)CCOc1ccc(Nc2nccc(-c3cccc(-c4cc([C@]5(O)CCN(C)C5=O)on4)n3)n2)nn1 [Example 130, (R)-3-(3-(6-(2-((6-(2-(Dimethylamino)ethoxy)pyridazin-3-yl)amino)pyrimidin-4-yl)pyridin-2-yl)isoxazol-5-yl)-3-hydroxy-1-methylpyrrolidin-2-one]",50 to 500
7,"Cc1ncnn1-c1ccc(Nc2nccc(-c3cccc(-c4cc([C@]5(O)CCN(C)C5=O)on4)n3)n2)nc1 [Example 131, (R)-3-Hydroxy-1-methyl-3-(3-(6-(2-((5-(5-methyl-1H-1,2,4-triazol-1-yl)pyridin-2-yl)amino)pyrimidin-4-yl)pyridin-2-yl)isoxazol-5-yl)pyrrolidin-2-one]",50 to 500
8,"CN1C(=O)[C@](O)(c2cc(-c3cccc(-c4ccnc(Nc5cnn6c5CCC6)n4)n3)no2)[C@H]2C[C@H]21 [Example 133, (1R,4R,5S)-4-(3-(6-(2-((5,6-Dihydro-4H-pyrrolo[1,2-b]pyrazol-3-yl)amino)pyrimidin-4-yl)pyridin-2-yl)isoxazol-5-yl)-4-hydroxy-2-methyl-2-azabicyclo[3.1.0]hexan-3-one]",< 50
9,"CN1CC[C@@](O)(c2cc(-c3cccc(-c4ccnc(Nc5cnn6c5CCC6)n4)n3)on2)C1=O [Example 134, (R)-3-(5-(6-(2-((5,6-Dihydro-4H-pyrrolo[1,2-b]pyrazol-3-yl)amino)pyrimidin-4-yl)pyridin-2-yl)isoxazol-3-yl)-3-hydroxy-1-methylpyrrolidin-2-one]",< 50
10,"COCn1ncc(Nc2nccc(-c3cccc(-c4cc([C@]5(O)CCN(C)C5=O)no4)n3)n2)n1 [Example 135, (R)-3-Hydroxy-3-(5-(6-(2-((2-(methoxymethyl)-2H-1,2,3-triazol-4-yl)amino)pyrimidin-4-yl)pyridin-2-yl)isoxazol-3-yl)-1-methylpyrrolidin-2-one]",< 50
11,"COc1cc(-c2ccnc(Nc3cnn(C)c3)n2)nc(-n2cc([C@]3(O)CCN(C)C3=O)nn2)c1 [Example 136, (R)-3-Hydroxy-3-(1-(4-methoxy-6-(2-((1-methyl-1H-pyrazol-4-yl)amino)pyrimidin-4-yl)pyridin-2-yl)-1H-1,2,3-triazol-4-yl)-1-methylpyrrolidin-2-one]",< 50
12,"CN1CC[C@@](O)(c2cn(-c3cc(C(F)F)cc(-c4ccnc(Nc5cnn(C)c5)n4)n3)nn2)C1=O [Example 137, (R)-3-(1-(4-(Difluoromethyl)-6-(2-((1-methyl-1H-pyrazol-4-yl)amino)pyrimidin-4-yl)pyridin-2-yl)-1H-1,2,3-triazol-4-yl)-3-hydroxy-1-methylpyrrolidin-2-one]",< 50
13,"COCc1cc(-c2ccnc(Nc3cnn(C)c3)n2)nc(-n2cc([C@]3(O)CCN(C)C3=O)nn2)c1 [Example 138, (R)-3-Hydroxy-3-(1-(4-(methoxymethyl)-6-(2-((1-methyl-1H-pyrazol-4-yl)amino)pyrimidin-4-yl)pyridin-2-yl)-1H-1,2,3-triazol-4-yl)-1-methylpyrrolidin-2-one]",50 to 500
14,"Cc1nn(CC(F)F)cc1Nc1nccc(-c2cccc(-n3cc([C@]4(O)CCN(C)C4=O)nn3)n2)n1 [Example 144, (R)-3-(1-(6-(2-((1-(2,2-Difluoroethyl)-3-methyl-1H-pyrazol-4-yl)amino)pyrimidin-4-yl)pyridin-2-yl)-1H-1,2,3-triazol-4-yl)-3-hydroxy-1-methylpyrrolidin-2-one]",< 50
15,"COc1cc(-c2cc([C@]3(O)CCN(C)C3=O)on2)nc(-c2ccnc(Nc3cnn(C)c3)n2)c1 [Example 145, (R)-3-Hydroxy-3-(3-(4-methoxy-6-(2-((1-methyl-1H-pyrazol-4-yl)amino)pyrimidin-4-yl)pyridin-2-yl)isoxazol-5-yl)-1-methylpyrrolidin-2-one]",< 50
16,"COc1cc(-c2cc([C@]3(O)CCN(C)C3=O)on2)nc(-c2ccnc(Nc3ccn(C)n3)n2)c1 [Example 146, (R)-3-Hydroxy-3-(3-(4-methoxy-6-(2-((1-methyl-1H-pyrazol-3-yl)amino)pyrimidin-4-yl)pyridin-2-yl)isoxazol-5-yl)-1-methylpyrrolidin-2-one]",< 50
17,"CC(Nc1nccc(-c2cccc(-c3cc([C@]4(O)CCN(C)C4=O)on3)n2)n1)c1cc[nH]n1 (stereo partly drawn) [Example 147, (3R)-3-(3-(6-(2-((1-(1H-Pyrazol-3-yl)ethyl)amino)pyrimidin-4-yl)pyridin-2-yl)isoxazol-5-yl)-3-hydroxy-1-methylpyrrolidin-2-one]",50 to 500
18,"C[C@@H](O)[C@@H](Nc1nccc(-c2cccc(-c3cc([C@]4(O)CCN(C)C4=O)on3)n2)n1)c1ccccc1 [Example 152, (R)-3-Hydroxy-3-(3-(6-(2-(((1 S,2R)-2-hydroxy-1-phenylpropyl)amino)pyrimidin-4-yl)pyridin-2-yl)isoxazol-5-yl)-1-methylpyrrolidin-2-one]",50 to 500
19,"C[C@H](Nc1nccc(-c2cccc(-c3cc([C@]4(O)CCN(C)C4=O)on3)n2)n1)c1ccc2nccn2c1 [Example 153, (R)-3-Hydroxy-3-(3-(6-(2-(((S)-1-(imidazo[1,2-a]pyridin-6-yl)ethyl)amino)pyrimidin-4-yl)pyridin-2-yl)isoxazol-5-yl)-1-methylpyrrolidin-2-one]",> 500
20,"C[C@H](O)[C@@H](Nc1nccc(-c2cccc(-c3cc([C@]4(O)CCN(C)C4=O)on3)n2)n1)c1ccccc1 [Example 158, (R)-3-Hydroxy-3-(3-(6-(2-(((1 S,2S)-2-hydroxy-1-phenylpropyl)amino)pyrimidin-4-yl)pyridin-2-yl)isoxazol-5-yl)-1-methylpyrrolidin-2-one]",> 500
21,"C[C@@H](O)[C@H](Nc1nccc(-c2cccc(-c3cc([C@]4(O)CCN(C)C4=O)on3)n2)n1)c1ccccc1 [Example 159, (R)-3-Hydroxy-3-(3-(6-(2-(((1R,2R)-2-hydroxy-1-phenylpropyl)amino)pyrimidin-4-yl)pyridin-2-yl)isoxazol-5-yl)-1-methylpyrrolidin-2-one]",50 to 500
22,"C[C@@H](Nc1nccc(-c2cccc(-c3cc([C@]4(O)CCN(C)C4=O)on3)n2)n1)C(=O)N1CCC1 [Example 167, (R)-3-(3-(6-(2-(((R)-1-(Azetidin-1-yl)-1-oxopropan-2-yl)amino)pyrimidin-4-yl)pyridin-2-yl)isoxazol-5-yl)-3-hydroxy-1-methylpyrrolidin-2-one]",> 500
23,"C[C@H](Nc1nccc(-c2cccc(-c3cc([C@]4(O)CCN(C)C4=O)on3)n2)n1)C(=O)N1CCC1 [Example 168, (R)-3-(3-(6-(2-(((S)-1-(Azetidin-1-yl)-1-oxopropan-2-yl)amino)pyrimidin-4-yl)pyridin-2-yl)isoxazol-5-yl)-3-hydroxy-1-methylpyrrolidin-2-one]",50 to 500
24,"C[C@@H](Nc1nccc(-c2cccc(-c3cc([C@]4(O)CCN(C)C4=O)on3)n2)n1)C(=O)N1CC(F)(F)C1 [Example 169, (R)-3-(3-(6-(2-(((R)-1-(3,3-Difluoroazetidin-1-yl)-1-oxopropan-2-yl)amino)pyrimidin-4-yl)pyridin-2-yl)isoxazol-5-yl)-3-hydroxy-1-methylpyrrolidin-2-one]",> 500
25,"C[C@H](Nc1nccc(-c2cccc(-c3cc([C@]4(O)CCN(C)C4=O)on3)n2)n1)C(=O)N1CC(F)(F)C1 [Example 170, (R)-3-(3-(6-(2-(((S)-1-(3,3-Difluoroazetidin-1-yl)-1-oxopropan-2-yl)amino)pyrimidin-4-yl)pyridin-2-yl)isoxazol-5-yl)-3-hydroxy-1-methylpyrrolidin-2-one]",50 to 500
26,"C[C@@H](Nc1nccc(-c2cccc(-c3cc([C@]4(O)CCN(C)C4=O)on3)n2)n1)C(=O)N1CC(C(F)(F)F)C1 [Example 171, (R)-3-Hydroxy-1-methyl-3-(3-(6-(2-(((R)-1-oxo-1-(3-(trifluoromethyl)azetidin-1-yl)propan-2-yl)amino)pyrimidin-4-yl)pyridin-2-yl)isoxazol-5-yl)pyrrolidin-2-one]",50 to 500
27,"C[C@H](Nc1nccc(-c2cccc(-c3cc([C@]4(O)CCN(C)C4=O)on3)n2)n1)C(=O)N1CC(C(F)(F)F)C1 [Example 172, (R)-3-Hydroxy-1-methyl-3-(3-(6-(2-(((S)-1-oxo-1-(3-(trifluoromethyl)azetidin-1-yl)propan-2-yl)amino)pyrimidin-4-yl)pyridin-2-yl)isoxazol-5-yl)pyrrolidin-2-one]",50 to 500
